Assay: recombinant barcode read abundance after kanamycin selection (control-corrected) (log10(CPM+1)); higher = more efficient recombination; sequences stand for … in AGTGCAGAGAAAATCGGCCAGTTTTCTCTGCCTGCAGTCCGCATGCCGT…AGATTTATGCAGCGGACTGCCTTTCTCCCAAAGTGATAAACCGGACAGTATCATGGACCGGTTTTCCCGGTAATCCGTATTTGCAAGGTTGGTTTCACT; site = the 11-nt target
Procedure: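 Pooled E. coli target-specificity screen for the IS621 bridge recombinase. Each library plasmid pairs an 11-nt target (CT core) with a bridge RNA whose target-binding loop (9-nt LTG + 4-nt RTG) is reprogrammed; the rest of the 177-nt WT IS621 bridge RNA scaffold is fixed. The plasmid is co-electroporated with a WT donor plasmid; recombinase is induced with 0.1 mM IPTG and recombinants are selected on kanamycin. Recombinant barcodes are sequenced, converted to CPM, averaged over two biological replicates and corrected by the unselected control CPM. Molecule = full bridge RNA written as DNA: LTG = specificity nt 1-9, RTG = reverse complement of specificity nt 8-11, in the WT scaffold.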
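Further: IS621 recombinase and bridge RNA in Escherichia coli cells.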

| Sequence | recombinant barcode read abundance (log10) |
| --- | --- |
| AATAAGACTTGGGTTCTAACCTGTTGCCA (site AATAAGACTTG) | 0.65 |
| AATAAGACTTGGGTTCTAACCTGTTGCCA (site AATAGGACTTA) | 0.134 |
| AATAAGTCTTGGGTTCTAACCTGTTGCAT (site AATAAGTCTAT) | 0.385 |
| AATAAGTCTTGGGTTCTAACCTGTTGCAT (site CTCGCTCCTCA) | 0.0524 |
| AATAGGCCTTGGGTTCTAACCTGTTGCGT (site AATAGGCCTAC) | 1.6 |
| AATAGGCCTTGGGTTCTAACCTGTTGCGT (site AATCGGCCTAC) | 0.163 |
| AATAGGCCTTGGGTTCTAACCTGTTGCGT (site AATGGGCCTAC) | 0.23 |
| AATAGGCCTTGGGTTCTAACCTGTTGCGT (site AATTGGCCTAC) | 0.0726 |
| AATCGCACTTGGGTTCTAACCTGTTGCCT (site AATACCACTAG) | 0 |
| AATCGCACTTGGGTTCTAACCTGTTGCCT (site AATCGCACTAG) | 0.216 |
| AATGCTCCTTGGGTTCTAACCTGTTGCAT (site AATGCTCCTAA) | 0.0259 |
| AATGCTCCTTGGGTTCTAACCTGTTGCAT (site AATGCTCCTAC) | 0.532 |
| AATGCTCCTTGGGTTCTAACCTGTTGCAT (site AATGCTCCTAG) | 0.248 |
| AATGCTCCTTGGGTTCTAACCTGTTGCAT (site AATGCTCCTAT) | 0.533 |
| AATGCTCCTTGGGTTCTAACCTGTTGCCT (site AATGCTCCTAA) | 0.0483 |
| AATGCTCCTTGGGTTCTAACCTGTTGCCT (site AATGCTCCTAC) | 0.158 |
| AATGCTCCTTGGGTTCTAACCTGTTGCCT (site AATGCTCCTAG) | 0.561 |
| AATGCTCCTTGGGTTCTAACCTGTTGCCT (site AATGCTCCTAT) | 0.0129 |

| Sequence | recombinant barcode read abundance (log10) |
| --- | --- |
| AATGGGCCTTGGGTTCTAACCTGTTGCGT (site AATAGGCCTAC) | 1.71 |
| AATGGGCCTTGGGTTCTAACCTGTTGCGT (site AATCGGCCTAC) | 0.048 |
| AATGGGCCTTGGGTTCTAACCTGTTGCGT (site AATGGGCCTAC) | 2.4 |
| AATGGGCCTTGGGTTCTAACCTGTTGCGT (site AATTGGCCTAC) | 0.765 |
| AATGGGGCTTGGGTTCTAACCTGTTGCAG (site AATGGGGCTCT) | 2.51 |
| AATGGGGCTTGGGTTCTAACCTGTTGCAG (site CGGCCACCTAA) | 0.185 |
| AATGGGTCTTGGGTTCTAACCTGTTGCTT (site AATGGGTCTAA) | 1.71 |
| AATGGGTCTTGGGTTCTAACCTGTTGCTT (site CCACTAGCTCT) | 0.0323 |
| AATTGGCCTTGGGTTCTAACCTGTTGCGT (site AATAGGCCTAC) | 0.425 |
| AATTGGCCTTGGGTTCTAACCTGTTGCGT (site AATCGGCCTAC) | 0.976 |
| AATTGGCCTTGGGTTCTAACCTGTTGCGT (site AATGGGCCTAC) | 0.376 |
| AATTGGCCTTGGGTTCTAACCTGTTGCGT (site AATTGGCCTAC) | 0.673 |
| ACAAACCCTTGGGTTCTAACCTGTTGCCT (site ACAAAACCTAG) | 0.214 |
| ACAAACCCTTGGGTTCTAACCTGTTGCCT (site ACAAACCCTAG) | 0.812 |
| ACAAACCCTTGGGTTCTAACCTGTTGCCT (site ACAAAGCCTAG) | 0.159 |
| ACAAACCCTTGGGTTCTAACCTGTTGCCT (site ACAAATCCTAG) | 0.0456 |
| ACAAAGCCTTGGGTTCTAACCTGTTGCCT (site ACAAAACCTAG) | 0.49 |
| ACAAAGCCTTGGGTTCTAACCTGTTGCCT (site ACAAACCCTAG) | 0.0556 |

Source: the supplement of paper PMC11208160
